Tests used:
Assay type in all cases: in vivo
[1] = system: Wheat seeds; assay: Emergence speed index (ESI) of treated seeds, wheat; conditions: suspension concentrate of 40% cyazofamid
Procedure: (§1) The seed emergence index was evaluated for seeds of different crops including corn, cotton and wheat treated with cyazofamid. The treatment protocol and the results are disclosed in the table below. […] A suspension concentrate of 40% cyazofamid was used in the treatment.

[2] = system: wheat grains; assay: Plant growth improvement of wheat grains treated with cyazofamid, field trials
Description: The present inventors have determined the plant growth improvement in wheat grains treated with cyazofamid in field trials. The treatments employed have been depicted in table 4 below. The results in terms of crop establishment in field, root weight, shoot weight and the total plant weight have been indicated in table 5 below: [table]

[3] = system: Cotton seeds; assay: Emergence speed index (ESI) of treated seeds, cotton; conditions: suspension concentrate of 40% cyazofamid
Procedure: as §1

[4] = system: Corn seeds; assay: Emergence speed index (ESI) of treated seeds, corn; conditions: suspension concentrate of 40% cyazofamid
Procedure: as §1

[5] = system: maize seeds inoculated with Pythium ultimum; assay: Emergence and vigor of maize seeds inoculated with Pythium ultimum after cyazofamid seed treatment (growth chamber); conditions: 160 g/l suspension concentrate, 20 days after sowing
Procedure: An inoculum of Pythium ultimum isolated from cotton was used to inoculate maize seeds. The infected maize grains were mixed with soil in a ratio of 10:90 v/v, respectively. The seeds were treated as depicted in the Table 1 below. The seeds used in treatments 1, 3 and 4 were inoculated with Pythium ultimum. The said seeds were cultivated in a growth chamber at a temperature of 22° C., for a 10 h dark/14 h light photoperiod. The seed arrangement was 10 seeds/plot (pot 10×10 cm); 3rep1/treatment. [table] The % emergence of seeds and the % vigor was observed 20 days after sowing of seeds.

[6] = system: seeds of different crops including corn, cotton and wheat
Procedure: as §1

[7] = 10 g ai/100 kg (25 ml/100 kg seeds)
[8] = 20 g ai/100 kg (50 ml/100 kg seeds)
[9] = 30 g ai/100 kg (75 ml/100 kg seeds)
[10] = 50 g ai/100 kg (125 ml/100 kg seeds)
[11] = 100 g ai/100 kg (250 ml/100 kg seeds)
[12] = seed treatment 10 g/100/kg seeds
[13] = seed treatment 50 g/100/kg seeds

Cc1ccc(-c2c(Cl)nc(C#N)n2S(=O)(=O)N(C)C)cc1 [Cyazofamid, 4-chloro-2-cyano-N, N-dimethyl-5-p-tolylimidazole-1-sulfonamide]
Emergence speed index (ESI) ([1]; 10 g ai/100 kg): 22.7 | Emergence speed index (ESI) ([1]; 50 g ai/100 kg): 23.0 | Emergence speed index (ESI) ([1]; 100 g ai/100 kg): 22.5 | Root weight [2, 7]: 3.1 g | Shoot weight [2, 7]: 5.9 g | Total plant weight [2, 7]: 9.0 g | Crop establishment plants/m row 25 DAA [2, 7]: 81.5 plants/m row | Crop establishment plants/m row 38 DAA [2, 7]: 74.5 plants/m row | Root weight [2, 8]: 3.1 g | Shoot weight [2, 8]: 5.3 g | Total plant weight [2, 8]: 8.4 g | Crop establishment plants/m row 25 DAA [2, 8]: 73.1 plants/m row | Crop establishment plants/m row 38 DAA [2, 8]: 79.4 plants/m row | Root weight [2, 9]: 3.8 g | Shoot weight [2, 9]: 5.4 g | Total plant weight [2, 9]: 9.2 g | Crop establishment plants/m row 25 DAA [2, 9]: 74.8 plants/m row | Crop establishment plants/m row 38 DAA [2, 9]: 80.8 plants/m row | Root weight [2, 10]: 3.0 g | Shoot weight [2, 10]: 5.0 g | Total plant weight [2, 10]: 8.1 g | Crop establishment plants/m row 25 DAA [2, 10]: 75.6 plants/m row | Crop establishment plants/m row 38 DAA [2, 10]: 82.5 plants/m row | Root weight [2, 11]: 2.9 g | Shoot weight [2, 11]: 5.2 g | Total plant weight [2, 11]: 8.1 g | Crop establishment plants/m row 25 DAA [2, 11]: 74.0 plants/m row | Crop establishment plants/m row 38 DAA [2, 11]: 79.9 plants/m row | crop establishment in field, root weight, shoot weight and total plant weight compared with untreated control ([2]; in words, treated wheat grains, 10-100 g ai/100 kg): higher | Emergence speed index (ESI) ([3]; 10 g ai/100 kg): 6.9 | Emergence speed index (ESI) ([3]; 50 g ai/100 kg): 6.3 | Emergence speed index (ESI) ([3]; 100 g ai/100 kg): 6.5 | Emergence speed index (ESI) ([4]; 10 g ai/100 kg): 32.7 | Emergence speed index (ESI) ([4]; 50 g ai/100 kg): 32.9 | Emergence speed index (ESI) ([4]; 100 g ai/100 kg): 32.6 | % emergence (20 DAS) [5, 12]: 76.67% | % vigor (20 DAS) [5, 12]: 86.67% | % emergence (20 DAS) [5, 13]: 73.33% | % vigor (20 DAS) [5, 13]: 83.33% | phytotoxicity in the emergent plants ([6]; in vivo): no phytotoxicity observed | emergence index of treated seeds compared with untreated seeds ([6]; in words, corn, cotton and wheat seeds, 10-100 g ai/100 kg): more efficient than untreated seeds
